Where two headings read alike, the source gives them in different places.
Experiments:
ALDH1a3 [1] = target: T1, ALDH1a3 (Homo sapiens, UniProt P47895); experiment: ALDEFLUOR assay in SUM159-M1a-Aldh1a3 cells (flow cytometry); assay type: cell-based; conditions: for Percent of Cells Positive for ALDEFLUOR at 100 nM / inhibition at 0.1 µM: SUM159-M1a-Aldh1a3 cells, compound at 100 nM; for inhibition at 0.1 µM: read-out: Inhibitory Activity at 100 nM (%); for inhibition of ALDH1a3 activity (FIG. 1A): compounds at 100 nM; for lowest concentration at which inhibitory activity detected ([inh-min], FIG. 1B): threshold at lower bound of two standard deviations of control samples
T1 construct: lentiviral vectors containing either the vector backbone or full-length human Aldh1a3; expressed in transfected cells; host or cells: SUM159-M1a (A1) and SUM159 (A7) breast cancer cells, lentiviral pLex vector, puromycin selection
T1 sequence (P47895 1-512): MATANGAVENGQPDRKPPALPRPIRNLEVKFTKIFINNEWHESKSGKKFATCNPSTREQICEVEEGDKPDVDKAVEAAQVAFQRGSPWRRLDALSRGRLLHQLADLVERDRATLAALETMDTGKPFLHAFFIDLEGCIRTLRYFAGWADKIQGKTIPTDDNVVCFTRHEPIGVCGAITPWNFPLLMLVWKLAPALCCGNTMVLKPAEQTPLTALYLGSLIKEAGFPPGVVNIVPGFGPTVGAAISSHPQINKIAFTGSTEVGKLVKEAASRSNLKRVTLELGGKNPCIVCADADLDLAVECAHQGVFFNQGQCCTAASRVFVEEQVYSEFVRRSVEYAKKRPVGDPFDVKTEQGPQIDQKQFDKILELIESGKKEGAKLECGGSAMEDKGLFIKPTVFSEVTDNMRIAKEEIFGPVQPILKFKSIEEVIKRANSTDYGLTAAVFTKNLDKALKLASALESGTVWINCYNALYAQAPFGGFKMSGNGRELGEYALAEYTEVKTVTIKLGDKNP
Method: (§1) Cells were counted, centrifuged and resuspended at 1,000,000 cells/mL in ALDEFLUOR™ buffer (Stemcell Technologies). ALDEFLUOR™ substrate (Stemcell Technologies, 1:200) and test compound or 1 mM DEAB were added to cell suspension and incubated at 37° C. for 45 minutes with vortexing every 15 minutes. Cells were centrifuged and resuspended in ALDEFLUOR™ buffer with DAPI at 5 μg/mL. Samples were analyzed with the BD LSR2 flow cytometry platform. Gating was performed using DEAB as a negative control.
Gating for background fluorescence was performed using 1 millimolar DEAB as a negative control.
The [inh-min] threshold was set at the lower bound of two standard deviations of control samples, while the IC50 threshold was set at 50% of the average of control samples.
High activity was gated at the 99th percentile of cells at a MBE1.5 concentration of 10 nanomolar. The [inh-min] threshold was set at the lower bound of two standard deviations of control samples.
An ALDEFLUOR™ assay was also used to assess the relative activity of several compounds described herein against SUM159-M1a-Aldh1a3 cells. The activity of several compounds in the assay at a concentration of 100 nM is reported in Table 1, along with the chemical structure and compound name associated with each compound.

ALDH1a3 [2] = target: T1, ALDH1a3; experiment: ALDEFLUOR assay in MCF7 cells transduced with human Aldh1a3; assay type: cell-based
Method: The coding sequences of Aldh1a1, Aldh1a2, Aldh1a3 and Aldh3a1 were cloned from cDNA made from pooled human reference RNA samples. Cloned sequences flanked by Age1 and Xho1 restriction sites were inserted into the pLex lentiviral plasmid. Clones were sequenced and compared against NCBI expressed sequence tags (ESTs) for accuracy. Viral production of each enzyme was performed by transfection into the 293T packaging cell line using PEI along with PsPax2 and VSVG packaging vectors. Viruses were collected and filtered at 0.45 μm, then cells were transduced using polybrene (8 μg/mL) for 12 hours, followed by culture with 1 μg/mL puromycin for the duration of experiments. All viral transduction and selection was performed on a cell population-wide basis.
as §1
ALDH isoforms 1a1, 1a2, 1a3 and 3a1 were expressed in MCF7 or SUM159 cells, which were subsequently used in an ALDEFLUOR™ assay.

SUM159-M1-p44 cells = experiment: Lung metastasis xenograft, SUM159-M1-p44 cells by tail-vein injection, BLI; assay type: in vivo, mouse; conditions: three doses of 50 mg/kg in combination with 25 mg/kg paclitaxel, days 17, 19 and 21
Method: In another xenograft experiment, mice were injected with SUM159-M1-p44 cells via tail-vein injection, as described above, and randomized following injection. Metastatic burden was imaged on day 16 via intravital imaging. Mice were then treated with paclitaxel (25 mg/kg) and either vehicle or MBE1.5 (50 mg/kg) on days 17, 19 and 21. Lung metastatic burden was then imaged on day 22. Signals were normalized to day 16.

| Structure (SMILES) | IC50 (ALDH1a3 [1]) | Percent of Cells Positive for ALDEFLUOR at 100 nM (ALDH1a3 [1]) | inhibition at 0.1 µM (ALDH1a3 [1]) | inhibition of ALDH1a3 activity (FIG. 1A) (ALDH1a3 [1]) | lowest concentration at which inhibitory activity detected ([inh-min], FIG. 1B) (ALDH1a3 [1]) | inhibition of Aldh1a3 activity (FIG. 2A) (ALDH1a3 [2]; MCF7 cells) | IC50 (ALDH1a3 [1]; dose titration, IC50 threshold at 50% of average of control samples, read-out: IC50 (percentage of ALDEFLUOR-positive cells, FIG. 1B)) | inhibition of highly ALDH1a3-active cells (high ALDH percentage, FIG. 1C) (ALDH1a3 [1]; dose titration, high activity gated at 99th percentile at 10 nanomolar MBE1.5) | isoform specificity, percentage of ALDEFLUOR-positive MCF7 cells (FIG. 13B) (ALDH1a3 [2]; MCF7 cells expressing ALDH 1a1, 1a2, 1a3 or 3a1) | lung metastasis by BLI (FIG. 14) (SUM159-M1-p44 cells) |
| --- | --- | --- | --- | --- | --- | --- | --- | --- | --- | --- |
| CCc1cnccc1C(=O)Nc1cc2c(cc1F)NC(=O)CC2 [MBE1, 3-ethyl-N-(7-fluoro-2-oxo-1,2,3,4-tetrahydroquinolin-6-yl)isonicotinamide] | 8 to 10 nM | 0.73% | 99% | high-affinity compounds for the inhibition of ALDH1a3 activity | 2 nM | effective at inhibiting Aldh1a3 activity | – | – | – | – |
| CCc1ccccc1C(=O)Nc1cc2c(cc1F)NC(=O)CC2 [MBE1.5, 2-ethyl-N-(7-fluoro-2-oxo-1,2,3,4-tetrahydroquinolin-6-yl)benzamide] | – | 0.03% | 100% | high-affinity compounds for the inhibition of ALDH1a3 activity | 2 nM | – | 8 to 10 nM | more adept at inhibiting highly ALDH1a3-active cells than MBE1 | specifically inhibits ALDH1a3 at concentrations below 10 μM | caused regression of established metastatic disease |
